Assay results taken from the NIST ThermoML archive (doi:10.1021/je7003758).
± gives the expanded uncertainty stated by the source.

Conditions: 298.15 K; 100 kPa; Liquid

With ClCCCl [1,2-dichloroethane] as the compound, how does the mass density read?
The mass density was 1245.5 ± 0.6 kg/m3.

With ClCCCCCl [1,4-dichlorobutane] as the compound, how does the mass density read?
Its mass density is 1133.7 ± 3.4 kg/m3.

With ClCCCCCCCl [1,6-dichlorohexane] as the compound, how does the mass density read?
Its mass density is 1063.8 ± 1.4 kg/m3.

Which mass density does the source give for CCCCCl [1-chlorobutane] here?
Its mass density is 880.6 ± 0.3 kg/m3.

For CCCCCCCl [1-chlorohexane], which mass density is on record?
The mass density was 873.1 ± 0.6 kg/m3.

Which mass density does the source give for CCCCCCCCCl [1-chlorooctane] here?
Its mass density is 868.8 ± 1.3 kg/m3.

Same assay, conditions: 298.15 K; 10000 kPa; Liquid

Which mass density does the source give for ClCCCl [1,2-dichloroethane] here?
Its mass density is 1255.1 ± 1 kg/m3.
